# Patent US8642544B2, “N-terminus conformationally constrained GLP-1 receptor agonist compounds” (Amylin Pharmaceuticals, LLC, priority 2009, dated 2014)
# Like-named read-outs stand apart in the source and are kept apart here.
# Biological target: T1, GLP-1 receptor (Rattus norvegicus, UniProt P32301)
# T1 construct: 96-well assay plate containing RIN m5f cell membranes in an ATP/GTP mixture; endogenous in cells; host or cells: RIN m5f cell membranes
# T1 sequence (P32301 22-463): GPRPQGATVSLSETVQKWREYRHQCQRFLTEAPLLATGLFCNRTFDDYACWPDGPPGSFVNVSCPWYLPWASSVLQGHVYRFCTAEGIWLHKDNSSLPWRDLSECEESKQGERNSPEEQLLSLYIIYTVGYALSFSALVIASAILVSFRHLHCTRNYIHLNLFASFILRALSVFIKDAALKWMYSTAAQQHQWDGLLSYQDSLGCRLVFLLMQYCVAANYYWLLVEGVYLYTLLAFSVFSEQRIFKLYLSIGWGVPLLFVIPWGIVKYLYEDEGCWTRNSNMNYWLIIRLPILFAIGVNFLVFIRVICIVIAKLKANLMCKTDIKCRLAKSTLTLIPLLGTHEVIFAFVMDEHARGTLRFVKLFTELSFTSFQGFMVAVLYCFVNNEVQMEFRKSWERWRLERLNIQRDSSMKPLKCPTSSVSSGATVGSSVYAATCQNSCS
# Experiment: in vitro functional assay at the GLP-1 receptor (cyclase, cAMP production in RIN m5f cell membranes)
# Type: biochemical
# Experimental: The compounds shown in Table 1 below were analyzed in an in vitro functional assay at the GLP-1 receptor. The assay was conducted as follows: Membrane fractions were prepared from confluent cultures of RIN m5f cells. Compounds were serially diluted with an assay buffer, and then added to a 96-well assay plate containing RIN m5f cell membranes in an ATP/GTP mixture. Cyclase activities were determined by measuring the production of cAMP induced through GLP-1 receptor activation. Quantification of cAMP production was achieved through a competitive chemiluminescence assay with a biotinylated-cAMP probe using Perkin Elmer Fusion™-Alpha Microplate Analyzer (AlphaScreen™ technology). The compound EC50 values were obtained through fitting the concentration-response curves to a four-parameter logistic equation within GraphPad PRISM® software.
# [1] = Cyclase GLP-1 Receptor EC50 (nM), Table 1, RIN m5f cell membranes, cAMP production (AlphaScreen)
Structure (SMILES),EC50 [1] [nM],also measured
CC[C@H](C)[C@H](NC(=O)[C@H](Cc1ccccc1)NC(=O)[C@H](CC(C)C)NC(=O)[C@H](CCCNC(=N)N)NC(=O)[C@@H](NC(=O)[C@H](C)NC(=O)[C@H](CCC(=O)O)NC(=O)[C@H](CCC(=O)O)NC(=O)[C@H](CCC(=O)O)NC(=O)[C@H](CC(C)C)NC(=O)[C@H](CCC(N)=O)NC(=O)[C@H](CCCCN)NC(=O)[C@H](CO)NC(=O)[C@H](CC(C)C)NC(=O)[C@H](CC(=O)O)NC(=O)[C@H](CO)NC(=O)[C@@H](NC(=O)[C@H](Cc1ccccc1)NC(=O)[C@@H](NC(=O)[C@H]1CSSC[C@H](NC(=O)[C@@H](N)Cc2c[nH]cn2)C(=O)N2CCC[C@H]2C(=O)N1)[C@@H](C)O)[C@@H](C)O)C(C)C)C(=O)N[C@@H](CCC(=O)O)C(=O)N[C@@H](Cc1ccccc1)C(=O)N[C@@H](CC(C)C)C(=O)N[C@@H](CCCCN)C(=O)N[C@@H](CC(N)=O)C(N)=O [8D],106,
CC[C@H](C)[C@H](NC(=O)[C@H](Cc1ccccc1)NC(=O)[C@H](CC(C)C)NC(=O)[C@H](CCCNC(=N)N)NC(=O)[C@@H](NC(=O)[C@H](C)NC(=O)[C@H](CCC(=O)O)NC(=O)[C@H](CCC(=O)O)NC(=O)[C@H](CCC(=O)O)NC(=O)[C@H](CC(C)C)NC(=O)[C@H](CCC(N)=O)NC(=O)[C@H](CCCCN)NC(=O)[C@H](CO)NC(=O)[C@H](CC(C)C)NC(=O)[C@H](CC(=O)O)NC(=O)[C@H](CO)NC(=O)[C@@H](NC(=O)[C@H](Cc1ccccc1)NC(=O)[C@@H](NC(=O)[C@H]1CSSC[C@@H](NC(=O)[C@@H](N)Cc2c[nH]cn2)C(=O)N2CCC[C@H]2C(=O)N1)[C@@H](C)O)[C@@H](C)O)C(C)C)C(=O)N[C@@H](CCC(=O)O)C(=O)N[C@@H](Cc1ccccc1)C(=O)N[C@@H](CC(C)C)C(=O)N[C@@H](CCCCN)C(=O)N[C@@H](CC(N)=O)C(N)=O [8C],969,
CC[C@H](C)[C@H](NC(=O)[C@H](Cc1ccccc1)NC(=O)[C@H](CC(C)C)NC(=O)[C@H](CCCNC(=N)N)NC(=O)[C@@H](NC(=O)[C@H](C)NC(=O)[C@H](CCC(=O)O)NC(=O)[C@H](CCC(=O)O)NC(=O)[C@H](CCC(=O)O)NC(=O)[C@H](CC(C)C)NC(=O)[C@H](CCC(N)=O)NC(=O)[C@H](CCCCN)NC(=O)[C@H](CO)NC(=O)[C@H](CC(C)C)NC(=O)[C@H](CC(=O)O)NC(=O)[C@H](CO)NC(=O)[C@@H](NC(=O)[C@H](Cc1ccccc1)NC(=O)[C@@H](NC(=O)[C@@H]1CSSC[C@@H](NC(=O)[C@@H](N)Cc2c[nH]cn2)C(=O)N2CCC[C@H]2C(=O)N1)[C@@H](C)O)[C@@H](C)O)C(C)C)C(=O)N[C@@H](CCC(=O)O)C(=O)N[C@@H](Cc1ccccc1)C(=O)N[C@@H](CC(C)C)C(=O)N[C@@H](CCCCN)C(=O)N[C@@H](CC(N)=O)C(N)=O [8B],1.26,
CC[C@H](C)[C@H](NC(=O)[C@H](Cc1ccccc1)NC(=O)[C@H](CC(C)C)NC(=O)[C@H](CCCNC(=N)N)NC(=O)[C@@H](NC(=O)[C@H](C)NC(=O)[C@H](CCC(=O)O)NC(=O)[C@H](CCC(=O)O)NC(=O)[C@H](CCC(=O)O)NC(=O)[C@H](CC(C)C)NC(=O)[C@H](CCC(N)=O)NC(=O)[C@H](CCCCN)NC(=O)[C@H](CO)NC(=O)[C@H](CC(C)C)NC(=O)[C@H](CC(=O)O)NC(=O)[C@H](CO)NC(=O)[C@@H](NC(=O)[C@H](Cc1ccccc1)NC(=O)[C@@H](NC(=O)CNC(=O)[C@@H]1CCCN1C(=O)[C@@H](NC(=O)[C@@H](N)Cc1c[nH]cn1)C(C)C)[C@@H](C)O)[C@@H](C)O)C(C)C)C(=O)N[C@@H](CCC(=O)O)C(=O)N[C@@H](Cc1ccccc1)C(=O)N[C@@H](CC(C)C)C(=O)N[C@@H](CCCCN)C(=O)N[C@@H](CC(N)=O)C(N)=O [6C],152,
CC[C@H](C)[C@H](NC(=O)[C@H](Cc1ccccc1)NC(=O)[C@H](CC(C)C)NC(=O)[C@H](CCCNC(=N)N)NC(=O)[C@@H](NC(=O)[C@H](C)NC(=O)[C@H](CCC(=O)O)NC(=O)[C@H](CCC(=O)O)NC(=O)[C@H](CCC(=O)O)NC(=O)[C@H](CC(C)C)NC(=O)[C@H](CCC(N)=O)NC(=O)[C@H](CCCCN)NC(=O)[C@H](CO)NC(=O)[C@H](CC(C)C)NC(=O)[C@H](CC(=O)O)NC(=O)[C@H](CO)NC(=O)[C@@H](NC(=O)[C@H](Cc1ccccc1)NC(=O)[C@@H](NC(=O)CNC(=O)[C@@H]1CCCN1C(=O)[C@H]1CSC([C@@H](N)Cc2c[nH]cn2)N1)[C@@H](C)O)[C@@H](C)O)C(C)C)C(=O)N[C@@H](CCC(=O)O)C(=O)N[C@@H](Cc1ccccc1)C(=O)N[C@@H](CC(C)C)C(=O)N[C@@H](CCCCN)C(=O)N[C@@H](CC(N)=O)C(N)=O (some centres unmarked) [Compound in Figure 17B],668,
CC[C@H](C)[C@H](NC(=O)[C@H](Cc1ccccc1)NC(=O)[C@H](CC(C)C)NC(=O)[C@H](CCCNC(=N)N)NC(=O)[C@@H](NC(=O)[C@H](C)NC(=O)[C@H](CCC(=O)O)NC(=O)[C@H](CCC(=O)O)NC(=O)[C@H](CCC(=O)O)NC(=O)[C@H](CCSC)NC(=O)[C@H](CCC(N)=O)NC(=O)[C@H](CCCCN)NC(=O)[C@H](CO)NC(=O)[C@H](CC(C)C)NC(=O)[C@H](CC(=O)O)NC(=O)[C@H](CO)NC(=O)[C@@H](NC(=O)[C@H](Cc1ccccc1)NC(=O)[C@@H](NC(=O)CNC(=O)[C@@H]1CCCN1C(=O)[C@H](C)NC(=O)CCc1c[nH]cn1)[C@@H](C)O)[C@@H](C)O)C(C)C)C(=O)N[C@@H](CCC(=O)O)C(=O)N[C@@H](Cc1c[nH]c2ccccc12)C(=O)N[C@@H](CC(C)C)C(=O)N[C@@H](CCCCN)C(=O)N[C@@H](CC(N)=O)C(=O)N[C@@H](CCCCNC(=O)CCCC[C@@H]1SC[C@@H]2NC(=O)N[C@@H]21)C(N)=O [Compound 24D],,"EC50 (Cyclase GLP-1 Receptor EC50 (nM), Table 3, methods of Example 16): 0.77 nM"
CC[C@H](C)[C@H](NC(=O)[C@H](Cc1ccccc1)NC(=O)[C@H](CC(C)C)NC(=O)[C@H](CCCNC(=N)N)NC(=O)[C@@H](NC(=O)[C@H](C)NC(=O)[C@H](CCC(=O)O)NC(=O)[C@H](CCC(=O)O)NC(=O)[C@H](CCC(=O)O)NC(=O)[C@H](CC(C)C)NC(=O)[C@H](CCC(N)=O)NC(=O)[C@H](CCCCN)NC(=O)[C@H](CO)NC(=O)[C@H](CC(C)C)NC(=O)[C@H](CC(=O)O)NC(=O)[C@H](CO)NC(=O)[C@@H](NC(=O)[C@H](Cc1ccccc1)NC(=O)[C@@H](NC(=O)CNC(=O)[C@@H]1CSCN1C(=O)CNC(=O)[C@@H](N)Cc1c[nH]cn1)[C@@H](C)O)[C@@H](C)O)C(C)C)C(=O)N[C@@H](CCC(=O)O)C(=O)N[C@@H](Cc1ccccc1)C(=O)N[C@@H](CC(C)C)C(=O)N[C@@H](CCCCN)C(=O)N[C@@H](CC(N)=O)C(N)=O [5C],,"EC50 (Table 1, RIN m5f cell membranes, cAMP production (AlphaScreen), read-out: Cyclase GLP-1 Receptor EC50): 1.06 nM"
CC[C@H](C)[C@H](NC(=O)[C@H](Cc1ccccc1)NC(=O)[C@H](CC(C)C)NC(=O)[C@H](CCCNC(=N)N)NC(=O)[C@@H](NC(=O)[C@H](C)NC(=O)[C@H](CCC(=O)O)NC(=O)[C@H](CCC(=O)O)NC(=O)[C@H](CCC(=O)O)NC(=O)[C@H](CC(C)C)NC(=O)[C@H](CCC(N)=O)NC(=O)[C@H](CCCCN)NC(=O)[C@H](CO)NC(=O)[C@H](CC(C)C)NC(=O)[C@H](CC(=O)O)NC(=O)[C@H](CO)NC(=O)[C@@H](NC(=O)[C@H](Cc1ccccc1)NC(=O)[C@@H](NC(=O)CN1CC[C@@H](C(=O)O)[C@H](NC(=O)[C@H](C)NC(=O)[C@@H](N)Cc2c[nH]cn2)C1=O)[C@@H](C)O)[C@@H](C)O)C(C)C)C(=O)N[C@@H](CCC(=O)O)C(=O)N[C@@H](Cc1c[nH]c2ccccc12)C(=O)N[C@@H](CC(C)C)C(=O)N[C@@H](CCCCN)C(=O)N[C@@H](CCC(N)=O)C(=O)NCC(=O)NCC(=O)N1CCC[C@H]1C(=O)N[C@@H](CO)C(=O)N[C@@H](CCCCN)C(=O)N[C@@H](CCC(=O)O)C(=O)N[C@H](C(=O)N[C@H](C(=O)N[C@@H](CO)C(=O)O)[C@@H](C)CC)[C@@H](C)CC [16B],0.18,
